“Also recorded” adds a separate entry of the source.
Tests used:
Format in all cases: cell-based
LNCaP cells = test: MTT assay (cytotoxicity), LNCaP cells; conditions: LNCaP cells, 72 h, Table 4.2
How it was run: (§1)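 Seed 6-7×10^3 cells/well; incubate overnight; replace with fresh RPMI 1640 + 10% FBS containing compound or DMSO; incubate 72 h; measure viable cells by MTT.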

[1] = target: T1, T877A mutant of full-length AR (Homo sapiens, UniProt P10275, T878A); test: AR T877A mutant PSA-luc reporter assay in PC3 cells; conditions: 24 h; for inhibition of DHT-induced transactivation of T877A mutant AR (PSA-luc): 10 nM DHT; for agonism of AR T877A mutant (PSA-luc): absence of DHT
T1 sequence (P10275 1-920 T878A): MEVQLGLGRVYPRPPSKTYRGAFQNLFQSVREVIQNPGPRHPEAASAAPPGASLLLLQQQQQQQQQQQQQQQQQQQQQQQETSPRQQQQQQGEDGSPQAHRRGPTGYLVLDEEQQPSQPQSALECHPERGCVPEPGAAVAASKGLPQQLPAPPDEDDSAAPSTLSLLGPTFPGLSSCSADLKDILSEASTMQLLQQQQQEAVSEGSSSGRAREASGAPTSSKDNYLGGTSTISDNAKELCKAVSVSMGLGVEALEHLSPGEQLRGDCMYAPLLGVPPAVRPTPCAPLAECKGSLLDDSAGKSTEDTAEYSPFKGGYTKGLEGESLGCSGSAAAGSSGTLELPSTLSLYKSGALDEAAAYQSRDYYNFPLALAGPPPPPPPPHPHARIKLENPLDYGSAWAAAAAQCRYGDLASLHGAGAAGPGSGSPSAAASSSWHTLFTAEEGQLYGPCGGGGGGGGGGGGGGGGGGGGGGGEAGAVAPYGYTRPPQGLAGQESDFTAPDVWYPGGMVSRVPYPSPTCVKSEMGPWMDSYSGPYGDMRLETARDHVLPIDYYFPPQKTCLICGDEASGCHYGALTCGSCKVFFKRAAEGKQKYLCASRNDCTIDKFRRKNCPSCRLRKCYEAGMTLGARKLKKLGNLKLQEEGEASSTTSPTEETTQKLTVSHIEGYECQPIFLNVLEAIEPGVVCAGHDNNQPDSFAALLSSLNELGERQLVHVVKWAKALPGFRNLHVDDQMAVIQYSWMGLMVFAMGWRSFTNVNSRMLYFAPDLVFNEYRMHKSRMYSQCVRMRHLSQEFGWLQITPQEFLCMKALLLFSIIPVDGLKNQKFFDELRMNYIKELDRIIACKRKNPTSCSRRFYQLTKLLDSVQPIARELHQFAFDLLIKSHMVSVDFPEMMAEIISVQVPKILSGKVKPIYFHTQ
Source text: ENZ, enzalutamide; Bic, bicalutamide; OHF, hydroxyflutamide.

[2] = target: T2, Progesterone receptor (PR) (Homo sapiens, UniProt P06401); test: PR MMTV-luc reporter assay in PC3 cells; parameters: interference with transcriptional activity of PR: dose or concentration left out as unconfirmed; conditions: for effect on PR transcriptional activation (MMTV-luc): 10 nM R5020, PC3 cells, 24 h
T2 construct: expressed in transfected cells; host or cells: PC3
T2 sequence (P06401 1-933): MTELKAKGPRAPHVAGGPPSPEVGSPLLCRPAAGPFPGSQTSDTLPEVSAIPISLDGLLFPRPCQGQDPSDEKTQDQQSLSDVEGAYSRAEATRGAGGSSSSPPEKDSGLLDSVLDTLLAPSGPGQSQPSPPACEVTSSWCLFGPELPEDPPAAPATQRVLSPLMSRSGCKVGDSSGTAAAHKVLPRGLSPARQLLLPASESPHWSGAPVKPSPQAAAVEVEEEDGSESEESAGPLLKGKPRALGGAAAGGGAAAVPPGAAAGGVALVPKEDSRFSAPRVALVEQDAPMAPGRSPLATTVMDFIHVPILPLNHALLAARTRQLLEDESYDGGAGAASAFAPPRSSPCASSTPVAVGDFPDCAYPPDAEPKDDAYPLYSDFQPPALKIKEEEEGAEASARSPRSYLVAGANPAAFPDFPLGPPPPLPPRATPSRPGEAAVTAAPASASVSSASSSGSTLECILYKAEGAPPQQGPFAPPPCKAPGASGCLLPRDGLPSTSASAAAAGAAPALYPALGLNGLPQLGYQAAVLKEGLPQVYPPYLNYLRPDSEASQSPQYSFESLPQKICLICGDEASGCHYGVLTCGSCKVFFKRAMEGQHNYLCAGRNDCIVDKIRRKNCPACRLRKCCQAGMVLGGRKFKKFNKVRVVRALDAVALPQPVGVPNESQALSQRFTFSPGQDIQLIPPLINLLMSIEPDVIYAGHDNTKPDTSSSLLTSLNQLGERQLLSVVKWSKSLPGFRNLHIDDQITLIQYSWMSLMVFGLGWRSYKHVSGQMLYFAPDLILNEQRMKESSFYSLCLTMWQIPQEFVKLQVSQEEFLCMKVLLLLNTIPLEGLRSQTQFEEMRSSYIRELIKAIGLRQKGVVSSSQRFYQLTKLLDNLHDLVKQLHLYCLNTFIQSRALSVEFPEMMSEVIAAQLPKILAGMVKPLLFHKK

[3] = MTT assay (cytotoxicity), LNCaP cells; conditions: human, LNCaP cells
How it was run: as §1

Structure (SMILES) | interference with transcriptional activity of PR [2] | IC50 (LNCaP cells) [µM] | inhibition of DHT-induced transactivation of T877A mutant AR (PSA-luc) [1] | agonism of AR T877A mutant (PSA-luc) [1] | effect on PR transcriptional activation (MMTV-luc) [2] | IC50 at 72 h ([3]; 72 h, Table 2.1) [µM] | IC50 at 72 h ([3]; 72 h, Table 4.1) [µM] | IC50 at 72 h ([3]; 72 h treatment, Table 6.1) [µM]
O=C(Nc1cccc(C(F)(F)F)c1)Nc1ccc([N+](=O)[O-])c(C(F)(F)F)c1 [Compound 442] |  | 0.5 | dose-dependently suppressed; also recorded: dose-dependently inhibit | non-agonist |  |  |  | 
N#Cc1ccc(NC(=O)Nc2cccc(C(F)(F)F)c2)cc1C(F)(F)F [Compound 467] |  | 0.9 | dose-dependently suppressed; also recorded: dose-dependently inhibit | non-agonist |  |  |  | 
N#Cc1ccc(NC(=O)Nc2cccc(C(F)(F)F)c2)cc1Cl [Compound 492] |  | 0.8 | dose-dependently suppressed; also recorded: dose-dependently inhibit | non-agonist |  |  |  | 
O=C(Nc1ccc(Br)nc1)Nc1cc(C(F)(F)F)cc(C(F)(F)F)c1 [Compound 566] | do not interfere |  |  |  | do not interfere |  | 0.8 | 

Now from value to compound, other results behind:

interference with transcriptional activity of PR [2] | Structure (SMILES) | IC50 (LNCaP cells) [µM] | inhibition of DHT-induced transactivation of T877A mutant AR (PSA-luc) [1] | agonism of AR T877A mutant (PSA-luc) [1] | effect on PR transcriptional activation (MMTV-luc) [2] | IC50 at 72 h ([3]; 72 h, Table 2.1) [µM] | IC50 at 72 h ([3]; 72 h, Table 4.1) [µM] | IC50 at 72 h ([3]; 72 h treatment, Table 6.1) [µM]
do not interfere | O=C(N/C=C/c1cccc(C(F)(F)F)c1)Nc1ccncn1 [Compound 562] |  | inhibit |  | do not interfere; also recorded: selective towards the AR | 4.4 |  | 
do not interfere | O=C(Nc1cccc(C(F)(F)F)c1)Nc1ccc(NC(=O)c2ccccc2F)c(C(F)(F)F)c1 [Compound 746] |  | inhibit |  | do not interfere; also recorded: selective towards the AR |  |  | 1
